Values of other authors in US20180214382A1, “EDIBLE COMPOSITION COMPRISING A POLYSACCHARIDE AND A LIPID” (PERORA GMBH, priority 2015, published 2018).

Conditions: rat feeding study; independent from intake

Question: For `CCCCCCCCCCCCCCCCCC(=O)OCC(COC(=O)CCCCCCCCCCCCCCCCC)OC(=O)CCCCCCCCCCCCCCCCC` [tristearin], which “true digestibility of stearic acid from tristearin” value is on record?
Answer: Its value is 0.15 g/g.
